Source: patent publication US5164296A, “Assay methods involving ouabain” (priority 1990, dated 1992)

Key:
[1] = tested on: rings of aorta from guinea pigs; assay: Vasoactive properties in rings of aorta from guinea pigs; parameters: species or system guinea pig
Method: The aortic rings were incubated at 37° C. in phosphate buffered saline. The rings were submaximally contracted for 3 to 7 min, every 35 min, with 0.2 or 1.0 μM histamine. […] The apparent half-time for washout of the augmented tension response in the presence of plant ouabain was also much greater than 60 min.

[2] = 6.0 N HCl at 110° C.; cited from earlier work
[3] = target: T1, washed human red blood cells (Homo sapiens, UniProt P05023); assay: Inhibition of ouabain-sensitive ^86 Rb uptake by washed human red blood cells; format: cell-based
T1 construct: washed human red blood cells obtained by venipuncture; endogenous in cells; host or cells: washed human red blood cells (venipuncture)
Method: Fractions from the column were assayed for inhibition of ouabain-sensitive ^86 Rb uptake by washed human red blood cells obtained by venipuncture. This assay was used as an index of sodium transport activity (Hamlyn, J.M. et al, J. Biol. Chem., 264:7395-7404 (1989)).
More specifically, freshly washed cells were incubated for 2 hr at 37° C. (16% final hematocrit) in a final volume of 150 μl of flux buffer comprising 150 mM NaCl, 2.0 mM […] containing tracer amounts of ^86 Rb (DuPont--New England Nuclesr), 1.0 mM MgCl2, 1.0 mM Na2 HPO4, 2.0 mM CaCl2, 5.0 mM glucose and 20 mM HEPES-Tris (pH 7.4) (hereinafter "flux fubber"). Incubations were initiated by addition of column fractions to the cells. Aliquots were removed at various times and mixed with ice-cold flux buffer lacking ^86 Rb to quench the reactions. The quenched reactions were applied to a silicone oil cushion (Hysol XF1792B, Dexter Corp., Olean, N.Y.) in microcentrifuge tubes and centrifuged at 800×g for 10 min at 4° C. The red cell pellet was cut from deep-frozen tubes and trapped ^86 Rb was determined by γ-counting. Flux data were expressed as nmol of Rb uptake/10^8 cells. In each case, a value of 1.11×10^13 cells/liter was used to convert packed cell volumes to cell number for the flux data calculations. Ouabain-insensitive ^86 Rb uptake was estimated in parallel experiments by inclusion of 1.0 mM ouabain in the flux buffer. Ouabain-sensitive ^86 Rb uptake was taken as the total uptake minus that obtained in the presence of 1.0 mM ouabain.
The inhibition of ouabain-sensitive uptake of ^86 Rb was carried out as described above.

[4] = 50 ml of plasma equivalents from the UV peak at 32 min

CC1OC(OC2CC(O)C3(CO)C4C(O)CC5(C)C(C6=CC(=O)OC6)CCC5(O)C4CCC3(O)C2)C(O)C(O)C1O (stereo not shown) [human ouabain]
effect on baseline tension ([1]; 170 nM human ouabain, 200 nM plant ouabain): no effect | activity at 0.17 µM ([1]; Cavia porcellus, 0.5 h, read-out: histamine-evoked tension, % of control): 150 ± 14% | apparent half-time for washout of the augmented tension response ([1]; upon washout): greater than 60 min | rate of loss of inhibitory activity compared with ouabain [2]: significantly greater | effect on ouabain-insensitive uptake [3, 4]: no effect | inhibition of ouabain-sensitive ^86 Rb uptake [3, 4]: 80% | Hill coefficient ([3]; inhibition of ouabain-sensitive uptake of ^86 Rb): -0.99
